Columns and labels:
[1] = Binding affinity was determined as the ability to displace [3H]4''CD from the (mDRC) mitochondrial DBI receptor complex using primary cultures of glial cells; parameters: species or system Rattus norvegicus
Rattus norvegicus [2] = assay: Tested for antineophobic activity in rats using elevated maze test upon 70 umol/kg peroral administration, expressed as number of entries into the open arms after 45 min of administration; type: functional
Rattus norvegicus [3] = assay: Tested for antineophobic activity in rats using elevated maze test upon 70 umol/kg peroral administration, expressed as percent of time spent into open arms after 45 min of administration; type: functional
Rattus norvegicus [4] = assay: Tested for antineophobic activity in rats using elevated maze test upon 57 umol/kg peroral administration, expressed as number of entries into the open arms after 45 min of administration; type: functional
Rattus norvegicus [5] = assay: Tested for antineophobic activity in rats using elevated maze test upon 57 umol/kg peroral administration, expressed as percent of time spent into open arms after 45 min of administration; type: functional
Rattus norvegicus [6] = assay: Tested for antineophobic activity in rats using elevated maze test upon 59 umol/kg po administration, expressed as percent of time spent into open arms after 45 min of administration; type: functional
Rattus norvegicus [7] = assay: Tested for antineophobic activity in rats using elevated maze test upon 59 umol/kg peroral administration, expressed as number of entries into the open arms after 45 min of administration; type: functional
[8] = Concentration required to stimulate pregnenolone formation in the mitochondria of C6-2B glioma cells.; type: functional, Rattus norvegicus
Rattus norvegicus [9] = assay: Tested for antineophobic activity in rats using elevated maze test upon 53 umol/kg peroral administration, expressed as percent of time spent into open arms after 45 min of administration; type: functional
Rattus norvegicus [10] = assay: Tested for antineophobic activity in rats using elevated maze test upon 53 umol/kg peroral administration, expressed as number of entries into the open arms after 45 min of administration; type: functional

Question: Which results are given for CCCCCCN(CCCCCC)C(=O)Cc1c(-c2ccccc2)oc2ccc(Cl)cc12?
Answer: Ki [1]: 32 nM; No. of openarm entries (Rattus norvegicus [2]): 2.1; Time (Rattus norvegicus [3]): 4.7%

Question: Which “No. of openarm entries” value (Rattus norvegicus [4]) does the source give for CCCCCCN(CCCCCC)C(=O)Cc1c(-c2ccc(F)cc2)oc2ccccc12 here?
Answer: 2.1

Question: What about the Time (Rattus norvegicus [5]) of the same molecule?
Answer: 5.1%

Question: What about the Ki [1] of the same molecule?
Answer: 8 nM

Question: Which results are given for CCCCCCN(CCCCCC)C(=O)Cc1c(-c2ccccc2)oc2ccccc12?
Answer: Time (Rattus norvegicus [6]): 4.5%; Ki [1]: 14 nM; No. of openarm entries (Rattus norvegicus [7]): 2.6

Question: Which Ki [1] does the source give for CCCCCCN(CCCCCC)C(=O)Cc1c(-c2ccc(N)cc2)oc2ccccc12 here?
Answer: 35 nM

Question: Which “No. of openarm entries” value (Rattus norvegicus [4]) does the source give for CCCCCCN(CCCCCC)C(=O)Cc1c(-c2ccc(F)cc2)[nH]c2ccccc12 here?
Answer: 2.1

Question: What about the Time (Rattus norvegicus [5]) of the same molecule?
Answer: 4.5%

Question: What about the Ki [1] of the same molecule?
Answer: 4.4 nM

Question: What about the EC50 [8] of the same molecule?
Answer: 3 nM

Question: With CCCCCCN(CCCCCC)C(=O)Cc1c(-c2ccc(I)cc2)oc2ccccc12 as the molecule, how does the Ki [1] read?
Answer: 80 nM

Question: With CCCCCCN(CCCCCC)C(=O)Cc1c(-c2ccc(F)cc2)oc2ccc(Cl)cc12 as the molecule, how does the Ki [1] read?
Answer: 32 nM

Question: And the Time (Rattus norvegicus [9])?
Answer: 4.7%

Question: What about the “No. of openarm entries” value (Rattus norvegicus [10]) of the same molecule?
Answer: 2.3

Source: ChEMBL document CHEMBL1131546, “Synthesis and pharmacological evaluation of benzofuran-acetamides as "antineophobic" mitochondrial DBI receptor complex ligands” (Bioorg Med Chem Lett, 1998)
